Patent US11109593B2, “Isoxazolin-5-one derivative and herbicide containing same as active ingredient” (HOKKO CHEMICAL INDUSTRY CO., LTD., priority 2017, dated 2021)

What was measured:
Assay type in all cases: in vivo
Echinochloa crus-galli [1] = experiment: Test Example 4: herbicidal effect test by treatment of leave and stem in dry field farming (seven days after seeding); settings: 120 g/10a active ingredient; emulsion sprayed seven days after seeding; evaluated 14 days after treatment
Outline: (§1)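 Weeds were seeded at 20 seeds per species into the top 1 cm of alluvial upland soil in pots, then sprayed 7 days after seeding with water-diluted emulsifiable concentrate at 100 L/10 a, giving 120 g active ingredient/10 a. Duplicate pots; herbicidal rate (%) was 14 days post-treatment, from dry weight versus untreated.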

Amaranthus viridis [2] = experiment: as above; settings: 120 g/10a active ingredient; emulsion sprayed seven days after seeding; evaluated 14 days after treatment
Outline: as §1

Chenopodium album [3] = experiment: as above; settings: 120 g/10a active ingredient; emulsion sprayed seven days after seeding; evaluated 14 days after treatment
Outline: as §1

southern crabgrass [4] = experiment: as above; settings: 120 g/10a active ingredient; emulsion sprayed seven days after seeding; evaluated 14 days after treatment
Outline: as §1

Echinochloa crus-galli [5] = experiment: Test Example 1: herbicidal effect test by treatment of rice paddy soil (immediately after seeding); settings: 120 g/10a active ingredient, dry weight vs untreated area, 14 days after treatment
Outline: (§2)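 Applied at 120 g a.i./10 ares as diluted emulsion dropped into flooded (~3 cm) paddy soil pots right after sowing seeds 0–1 cm deep; greenhouse, two replicates. At day 14, dry weight of treated versus untreated plants gives % herbicidal rate.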

[6] = test system: broad leaf weeds (Lindernia pyxidaria and Monochoria vaginalis); experiment: as above; settings: 120 g/10a active ingredient, dry weight vs untreated area, 14 days after treatment
Outline: as §2

Scirpus juncoides [7] = experiment: as above; settings: 120 g/10a active ingredient, dry weight vs untreated area, 14 days after treatment
Outline: as §2

Echinochloa crus-galli [8] = experiment: Test Example 2: herbicidal effect test by treatment during growing period in paddy rice cultivation (seven days after seeding); settings: 120 g/10a active ingredient, assessed 14 days after treatment, dry weight vs untreated area
Outline: (§3)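 Post-emergence paddy water application: compounds were formulated as emulsions, diluted and dropped into flooded pots seven days after sowing at a rate equivalent to 120 g per 10 ares. Efficacy was taken as dry-weight reduction relative to untreated controls after 14 days.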

[9] = test system: broad leaf weeds (Lindernia pyxidaria and Monochoria vaginalis); experiment: as above; settings: 120 g/10a active ingredient, assessed 14 days after treatment, dry weight vs untreated area
Outline: as §3

Scirpus juncoides [10] = experiment: as above; settings: 120 g/10a active ingredient, assessed 14 days after treatment, dry weight vs untreated area
Outline: as §3

Echinochloa crus-galli [11] = experiment: Test Example 3: herbicidal effect test by treatment of dry field farming soil (one day after seeding); settings: 120 g/10a active ingredient, evaluated 14 days after treatment
Outline: (§4)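 Dry-field alluvium pots; weed seeds incorporated in top 1 cm; soil spray of diluted emulsion 1 d after seeding, 120 g a.i./10 a in 100 L/10 a. Readout: % reduction of dry weight vs untreated, day 14, duplicates.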

Amaranthus viridis [12] = experiment: as above; settings: 120 g/10a active ingredient, evaluated 14 days after treatment
Outline: as §4

Chenopodium album [13] = experiment: as above; settings: 120 g/10a active ingredient, evaluated 14 days after treatment
Outline: as §4

southern crabgrass [14] = experiment: as above; settings: 120 g/10a active ingredient, evaluated 14 days after treatment
Outline: as §4

SMILES	herbicidal effect (herbicidal rate), Echinochloa crus-galli (Echinochloa crus-galli [1]) [%]	herbicidal effect (herbicidal rate), Amaranthus viridis (Amaranthus viridis [2]) [%]	herbicidal effect (herbicidal rate), Chenopodium album (Chenopodium album [3]) [%]	herbicidal effect (herbicidal rate), southern crabgrass (southern crabgrass [4]) [%]	Herbicidal rate (%) Echinochloa crus-galli (Echinochloa crus-galli [5]) [%]	Herbicidal rate (%) Lindernia pyxidaria [6] [%]	Herbicidal rate (%) Monochoria vaginalis [6] [%]	Herbicidal rate (%) Scirpus juncoides (Scirpus juncoides [7]) [%]	Herbicidal rate (%) Echinochloa crus-galli (Echinochloa crus-galli [8]) [%]	Herbicidal rate (%) Lindernia pyxidaria [9] [%]	Herbicidal rate (%) Monochoria vaginalis [9] [%]	Herbicidal rate (%) Scirpus juncoides (Scirpus juncoides [10]) [%]	herbicidal rate, Echinochloa crus-galli (Echinochloa crus-galli [11]) [%]	herbicidal rate, Amaranthus viridis (Amaranthus viridis [12]) [%]	herbicidal rate, Chenopodium album (Chenopodium album [13]) [%]	herbicidal rate, southern crabgrass (southern crabgrass [14]) [%]
CCC(C)Cn1oc(=O)c(Cc2ccccc2N(C(=O)OCCOC)S(=O)(=O)C(F)(F)F)c1C (stereo not shown) [Compound 1-733]	90	60	60	80	100	90	90	100	100	70	90	90	100	80	60	100
COCCOC(=O)N(c1ccccc1Cc1c(C)n(CCSC)oc1=O)S(=O)(=O)C(F)(F)F [Compound 1-735]	90	40	40	90	90	90	90	90	90	90	90	90	90	90	90	90
COCCOC(=O)N(c1ccccc1Cc1c(C)n(C(C)c2ccccc2)oc1=O)S(=O)(=O)C(F)(F)F (stereo not shown) [Compound 1-736]	90	40	40	90	90	90	90	90	90	90	90	90	90	90	90	90
Cc1c(Cc2ccccc2N(C(=O)Oc2ccccc2)S(=O)(=O)C(F)(F)F)c(=O)on1C(C)(C)C [Compound 1-762]	90	40	40	90	90	90	90	90	90	90	90	90	90	90	90	90
